Here are results for 29 compounds from patent US8557812B2, “Small molecule inhibitors of anti-apoptotic BCL-2 family members and the uses thereof” (The Regents of the University of Michigan, priority 2004, dated 2013).

SMILES strings stand for the structures. pIC50: −log10 of the molar value.

The test system of test [1] is MDA-MB-231 (2LMP) cells. Description: Cell growth of MDA-MB-231 (2LMP) cells (WST). It counts as cell-based. The note with it: Homo sapiens, read-out: IC50 of cell growth inhibition.
Test [2] deals with Bcl-2 (Homo sapiens, UniProt P10415). Description: Fluorescence polarization in vitro Bcl-2 binding assay. The procedure: Bcl-2 used in this assay is a recombinant His-fused soluble protein. […] Inc., Research Triangle Park, N.C.). […] The unlabeled Bid peptide is used as the positive control. The Ki values were calculated using our developed equation for FP assay (Nikolovska-Coleska et al., Anal. Biochem., 2004, in press). The program for calculating a Ki value is available free of charge via the Internet at http://sw16.im.med.umich.edu/software/calc_ki/.
Bcl-2, sequence (P10415 92-205 limits assumed): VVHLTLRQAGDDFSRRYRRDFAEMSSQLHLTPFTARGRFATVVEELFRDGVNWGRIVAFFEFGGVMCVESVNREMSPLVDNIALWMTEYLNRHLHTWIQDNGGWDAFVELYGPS
In general terms: In fluorescence polarisation assays a small probe gives low polarisation when free and higher when bound to something large.

Test [3] has as its target human Bcl-xL (Homo sapiens, UniProt Q07817). Kind of test: Fluorescence polarization in vitro Bcl-xL binding assay. The note with it: displacement of Flu-Bak peptide. The source says: For determination of the binding affinity to Bcl-xL protein a human Bcl-xL recombinant His-tagged protein without the C-terminus hydrophobic tail and the Bak-16mer BH3 peptide labeled with 6-carboxyfluorescein succinimidyl ester (FAM) were used.

human Bcl-xL, sequence (Q07817 1-209 limits assumed): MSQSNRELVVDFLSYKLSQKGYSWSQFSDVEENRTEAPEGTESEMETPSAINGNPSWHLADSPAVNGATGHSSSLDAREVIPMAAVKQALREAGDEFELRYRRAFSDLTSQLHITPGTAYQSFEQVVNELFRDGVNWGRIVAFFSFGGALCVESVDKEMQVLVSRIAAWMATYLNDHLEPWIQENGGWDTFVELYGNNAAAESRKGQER

As to `Cc1cc(Cc2cc(Cc3ccccc3)c(O)c(O)c2O)c(C(C)C)cc1Oc1ccc2ccccc2n1` [TM-150], the pIC50 in test [1] is 4.70 to 7.00. Still for that read-out and setting: to `Cc1cc(Cc2cc(Cc3ccccc3)c(O)c(O)c2O)c(C(C)C)cc1Oc1ccc(C(F)(F)F)cc1[N+](=O)[O-]` [TM-144] belongs 4.70 to 7.00; to `Cc1cc(Cc2cc(Cc3ccccc3)c(O)c(O)c2O)c(C(C)C)cc1Oc1ccc([N+](=O)[O-])c(C(F)(F)F)c1` [TM-145], 4.70 to 7.00.

Consider `CC(C)c1cc(C(=O)Cc2ccc3ccccc3c2)c(O)c(O)c1O` [TM-108], for which the pIC50 is less than 6.00 in test [2], less than 6.00 in test [3] and 4.70 to 7.00 in test [1]. As for `CCCCCCCCCCCc1cc(C(C)C)c(O)c(O)c1O` [TM-105], the figures for the pIC50 in test [2], in test [3] and in test [1] were less than 6.00, less than 6.00 and 4.70 to 7.00, respectively. In the case of `O=C(c1cc(S(=O)(=O)N2CCc3ccccc3C2)c(O)c(O)c1O)N1CCc2ccc(S(=O)(=O)N[C@@H](Cc3ccccc3)C(=O)N3CCN(C(=O)C(F)(F)F)CC3)cc2C1` [TM-1202], the pIC50 in test [2] and in test [3] was less than 6.00 in each case. For `O=C(c1cc(S(=O)(=O)N2CCc3ccccc3C2)c(O)c(O)c1O)N1CCc2ccc(S(=O)(=O)NCCc3cccc(Cl)c3)cc2C1` [TM-1208], the pIC50 in test [2] is not below 6.00; in test [3], less than 6.00. In the case of `Cc1cc(Oc2ccc(Cc3cc(Cc4ccccc4)c(O)c(O)c3O)cc2C(C)C)c2ccccc2n1` [TM-156], the pIC50 in test [1] was 4.70 to 7.00. Still for that read-out and setting: to `O=C(c1ccc(Oc2ccccc2)cc1)c1cc(C(=O)c2cccc3ccccc23)c(O)c(O)c1O` [TM-168] belongs 4.70 to 7.00. Turning to `O=C(c1cc(S(=O)(=O)N2CCc3ccccc3C2)c(O)c(O)c1O)N1CCc2ccc(S(=O)(=O)NCC(c3ccccc3)c3ccccc3)cc2C1` [TM-198], the pIC50 in test [2] and in test [3] was less than 6.00 throughout.

With `Oc1c(Cc2ccccc2)cc(Cc2ccc(Oc3ccccc3)cc2)c(O)c1O` [TM-141], the pIC50 in test [3] was less than 6.00; in test [1], 4.70 to 7.00. Turning to `O=C(c1cc(S(=O)(=O)N2CCc3ccccc3C2)c(O)c(O)c1O)N1CCc2ccc(S(=O)(=O)N3CCCCC3)cc2C1` [TM-193], the pIC50 in test [2] and in test [3] was less than 6.00 in each case. As for `CN(CCc1ccccc1)S(=O)(=O)c1cc(C(=O)N2CCc3ccc(S(=O)(=O)NCCc4ccccc4)cc3C2)c(O)c(O)c1O` [TM-1205], the figures for the negative-log IC50 (pIC50) in test [2] and in test [3] were not below 6.00 and less than 6.00, respectively. As to `O=C(c1cc(S(=O)(=O)N2CCc3ccccc3C2)c(O)c(O)c1O)N1CCc2ccc(S(=O)(=O)NCCc3ccccc3)cc2C1` [TM-197], the pIC50 in test [2] was not below 6.00; in test [3] it was less than 6.00. Regarding `Oc1c(Cc2ccccc2)cc(Cc2ccc(-c3ccccc3)cc2)c(O)c1O` [TM-142], the values for the pIC50 in test [2], in test [3] and in test [1] were less than 6.00, less than 6.00 and 4.70 to 7.00, respectively. In the case of `CCCCCCCCCCC(=O)c1cc(Cc2ccccc2)c(O)c(O)c1O` [TM-122], the pIC50 in test [2] is not below 6.00; in test [3], less than 6.00; in test [1], 4.70 to 7.00.

On to `Cc1cc(Cc2cc(Cc3ccccc3)c(O)c(O)c2O)c(C(C)C)cc1Oc1ccc([N+](=O)[O-])cc1C(F)(F)F` [TM-146], for which, in test [1], the pIC50 is 4.70 to 7.00. Regarding `NC(=O)[C@H](Cc1ccccc1)NS(=O)(=O)c1ccc2c(c1)CN(C(=O)c1cc(S(=O)(=O)N3CCc4ccccc4C3)c(O)c(O)c1O)CC2` [TM-199], the pIC50 in test [2] and in test [3] was less than 6.00 each time. Regarding `O=C(c1cc(S(=O)(=O)N2CCc3ccccc3C2)c(O)c(O)c1O)N1CCc2ccc(S(=O)(=O)N[C@@H](Cc3ccccc3)C(=O)N3CCCCC3)cc2C1` [TM-1200], the pIC50 in test [2] and in test [3] was less than 6.00 each time. In the case of `CC(C)c1cc(Cc2cc(Cc3ccccc3)c(O)c(O)c2O)ccc1O` [TM-152], the negative-log IC50 (pIC50) in test [1] is 4.70 to 7.00.

As for `O=C(NCc1ccccc1)c1cc(S(=O)(=O)N2CCc3ccc(S(=O)(=O)N4CCCCC4)cc3C2)c(O)c(O)c1O` [TM-192], the pIC50 is not below 6.00 in test [2] and less than 6.00 in test [3]. Turning to `O=C(c1cc(C(=O)C2N=C3C=CC=CC3S2)c(O)c(O)c1O)C1N=C2C=CC=CC2S1` (centres unmarked) [TM-176], the pIC50 in test [2] and in test [3] was less than 6.00 in each case.

For the compound `CC(C)c1cc(Cc2cc(Cc3ccccc3)c(O)c(O)c2O)ccc1Oc1ccc2ccccc2n1` [TM-153], the pIC50 in test [1] is 4.70 to 7.00. As to `NS(=O)(=O)c1ccc(CCNS(=O)(=O)c2ccc3c(c2)CN(C(=O)c2cc(S(=O)(=O)N4CCc5ccccc5C4)c(O)c(O)c2O)CC3)cc1` [TM-1210], the negative logarithm of the IC50 (pIC50) in test [2] is not below 6.00; in test [3], less than 6.00. On to `Cc1cc(Cc2cc(Cc3ccccc3)c(O)c(O)c2O)c(C(C)C)cc1Oc1ccnc2ccccc12` [TM-147], for which the pIC50 in test [1] is 4.70 to 7.00. On to `O=C(c1ccc(Oc2ccccc2)cc1)c1cc(C(=O)c2ccc3ccccc3c2)c(O)c(O)c1O` [TM-169], for which the pIC50 in test [3] was less than 6.00; in test [1] it was 4.70 to 7.00. On to `O=C(c1ccc(Cc2cc(CCCc3ccccc3)c(O)c(O)c2O)cc1)c1cccc(O)c1O` [TM-135], for which, in test [1], the pIC50 is 4.70 to 7.00. On the same count and under the same terms, to `CCCCCCc1cc(C(C)C)c(O)c(O)c1O` [TM-103] belongs 4.70 to 7.00; to `O=C(c1cccc(Br)c1)c1cc(CCCc2ccccc2)c(O)c(O)c1O` [TM-137], 4.70 to 7.00.

The pIC50 is the negative decadic logarithm of the IC50, by convention in mol/L.
